In brackets after ≈: the same amount, converted by molar mass. Like-named read-outs stand apart in the source and are kept apart here.
Assays:
[1] = system: A. baumannii ATCC BAA-1797; test: MIC on A. baumannii ATCC BAA-1797; assay type: cell-based
Description: A. baumannii: A. baumannii ATCC BAA-1797 was grown from a glycerol stock by placing a small volume of cells onto a MHA plate. The MHA plate was incubated overnight at 37° C. A single colony was used to inoculate MHB to obtain a bacterial broth suspension. The MHB broth suspension was grown at 37° C. on a rotary shaking incubator (100 rpm) for 12 hours. The bacterial cell concentration was adjusted to ˜5×10^5 CFU/mL in MHB or MHB+10%, 20% or 40% FBS using OD at 595 nm. 500 μL aliquots of the adjusted bacterial cell suspension were placed into borosilicate glass tubes. The cell suspensions were treated with a compound of interest, and the treatments were serially diluted two-fold. The culture tubes were incubated for 18 hours at 37° C. Efficacy was either assessed visually or by adding 10% v/v MTT (5 mg/mL stock) after the 18 hour incubation period. The cell suspensions were subsequently incubated for 10 minutes to allow the MTT reagent to carry out the colorimetric reaction. The OD was read at 595 nm.

[2] = system: MRSA ATCC BAA-44; test: MIC on MRSA ATCC BAA-44; assay type: cell-based, S. aureus; details: Staphylococcus aureus
Description: MRSA BAA-44: MRSA ATCC BAA-44 was grown from a glycerol stock by placing a small volume of cells onto a Mueller-Hinton agar plate (MHA). The MHA plate was incubated overnight at 37° C. A single colony was used to inoculate Mueller-Hinton broth (MHB) to obtain a bacterial broth suspension. The MHB broth suspension was grown at 37° C. on a rotary shaking incubator (100 rpm) for 12 hours. The bacterial cell concentration was adjusted to ˜5×10^5 colony forming units per milliliter (CFU/mL) in MHB−/+10, 20, or 40% FBS using optical density (OD) at 595 nm. 500 μL aliquots of the adjusted bacterial cell suspension were placed into borosilicate glass tubes. The cell suspensions were treated with 100 μM compound of interest and serially diluted two-fold. The culture tubes were incubated for 18 hours at 37° C. Efficacy was either assessed visually or by adding 10% v/v MTT (5 mg/mL stock) after the 18 hour incubation period, where the cell suspensions were subsequently incubated for 10 minutes to allow the MTT reagent to carry out the colorimetric reaction.

[3] = Acinetobacter baumannii, ATCC 1797 / ATCC BAA-1797, 0% FBS, read-out: MIC (μM) in MDR A. baumannii ATCC 1797 0% FBS
[4] = Acinetobacter baumannii, ATCC 1797 / ATCC BAA-1797, read-out: MIC (μM) in MDR A. baumannii ATCC 1797 40% FBS, 40% FBS
[5] = no serum (note in the cell), read-out: MIC (μM) in MRSA BAA-44
[6] = Acinetobacter baumannii, ATCC 1797 / ATCC BAA-1797, 10% FBS, read-out: MIC (μM) in MDR A. baumannii ATCC 1797 10% FBS
[7] = 10% FBS, read-out: MIC (μM) in MRSA BAA-44 10% FBS

SMILES | MIC [1, 3] | MIC [1, 4] | further results
Clc1ccc(N/N=C/c2c[nH]c3ccccc23)cc1 [Compound 7, (E)-3-((2-(4-chlorophenyl)hydrazineylidene)methyl)-1H-indole] |  |  | MIC ([1]; Acinetobacter baumannii, ATCC 1797 / ATCC BAA-1797, read-out: MIC (μM) in MDR A. baumannii ATCC 1797 0% FBS): 5 µM (≈ 1.35 µg/mL); MIC ([1]; Acinetobacter baumannii, ATCC 1797 / ATCC BAA-1797, read-out: MIC (μM) in MDR A. baumannii ATCC 1797 10% FBS): 25 µM (≈ 6.74 µg/mL); MIC ([1]; Acinetobacter baumannii, ATCC 1797 / ATCC BAA-1797, read-out: MIC (μM) in MDR A. baumannii ATCC 1797 40% FBS): 50 µM (≈ 13.5 µg/mL); MIC ([2]; read-out: MIC (μM) in MRSA BAA-44 10% FBS): 100 µM (≈ 27 µg/mL)
CC(C)(C)OC(=O)Nc1cccc2[nH]cc(/C=N/Nc3ccc(Cl)cc3)c12 [Compound 18] | 3 µM (≈ 1.15 µg/mL) | > 100 µM | MIC ([1]; Acinetobacter baumannii, ATCCBAA1797, 18 h, read-out: MIC in the presence of 40% FBS, A. baumannii ATCC BAA-1797, 40% FBS): > 100 µM; MIC ([1]; Acinetobacter baumannii, ATCCBAA1797, A. baumannii ATCC BAA-1797, absence of serum, read-out: MIC in the absence of serum): 3 µM (≈ 1.15 µg/mL); MIC ([2]; MRSA ATCC BAA-44, serum not stated, read-out: MIC): 12.5 µM (≈ 4.81 µg/mL); MIC [2, 5]: 12.5 µM (≈ 4.81 µg/mL)
O=C(O)c1ccc(N/N=C/c2c[nH]c3ccccc23)cc1 [Compound 10, (E)-4-(2-((1H-indol-3-yl)methylene)hydrazineyl) benzoic acid] | > 100 µM |  | MIC [2, 5]: 100 µM (≈ 27.9 µg/mL)
N#CCC(=O)N/N=C/c1c[nH]c2ccccc12 [Compound 11, (E)-N′-((1H-indol-3-yl)methylene)-2-cyanoacetohydrazide] | > 100 µM | > 100 µM | MIC [1, 6]: > 100 µM; MIC [2, 7]: > 100 µM
Clc1ccc(N/N=C/c2c[nH]c3cccc(OCc4ccccc4)c23)c(Cl)c1 [Compound 32, (E)-4-(benzyloxy)-3-((2-(2,4-dichlorophenyl)hydrazineylidene)methyl)-1H-indole] | > 100 µM |  | 
Brc1ccc(/N=N/c2c[nH]c3cccc(Nn4nnc5ccccc54)c23)cc1 [Compound 1, (E)-N-(3-((4-bromophenyl)diazenyl)-1H-indol-4-yl)-1H-benzo[d][1,2,3]triazol-1-amine] | 50 µM (≈ 21.6 µg/mL) |  | 
O=S(=O)(N/N=C/c1c[nH]c2cccc(OCc3ccccc3)c12)c1ccccc1 [Compound 29, (E)-N′-((4-(benzloxy)-1H-indol-3-yl)methylene)benzenesulfonohydrazide] | > 100 µM | > 100 µM | 
C(=N\Nc1ncccn1)/c1c[nH]c2cccc(OCc3ccccc3)c12.O=C(O)C(F)(F)F [Compound 40, (E)-2-((4-(benzyloxy)-1H-indol-3-yl)methylene)-1-(pyrimidin-2-yl)hydrazin-1-ium 2,2,2-trifluoroacetate] |  |  | MIC ([1]; 0% FBS, read-out: MIC (μM) in MDR A. baumannii ATCC 1797 0% FBS): >100 µM; MIC (μM) in MDR A. baumannii ATCC 1797 40% FBS ([1]; 40% FBS): >100 µM; MIC [2, 7]: > 100 µM
N=C(N)NCCC[C@H](N)C(=O)Oc1cccc2[nH]cc(/C=N/Nc3ccc(Cl)cc3)c12 [Compound 16, (E)-3-((2-(4-chlorophenyl)hydrazineylidene)methyl)-1H-indol-4-yl argininate] | 3 µM (≈ 1.33 µg/mL) | > 100 µM | MIC [1, 6]: > 100 µM; MIC [2, 7]: > 100 µM
Oc1cccc2[nH]cc(/C=N/Nc3ccc(F)cc3)c12 [Compound 21, (E)-3-((2-(4-fluorophenyl)hydrazineylidene)methyl)-1H-indol-4-ol] | 25 µM (≈ 6.73 µg/mL) | > 100 µM | MIC ([2]; in FBS (note in the cell, percentage not given), read-out: MIC (μM) in MRSA BAA-44): > 100 µM; MIC [2, 5]: 25 µM (≈ 6.73 µg/mL)
Brc1ccc(N/N=C/c2c[nH]c3ccc(Br)cc23)cc1 [Compound 23, (E)-1-((5-bromo-1H-indol-3-yl)methylene)-2-(4-bromophenyl)hydrazin-1-ium chloride] | 12.5 µM |  | MIC ([1]; Acinetobacter baumannii, ATCC 1797 / ATCC BAA-1797, in human serum (note in the cell of the 40% FBS column), read-out: MIC (μM) in MDR A. baumannii ATCC 1797): < 100 µM
O=[N+]([O-])c1ccc2[nH]cc(/N=N/c3ccc(Br)cc3)c2c1 [Compound 3, (E)-3-((4-bromophenyl)diazenyl)-5-nitro-1H-indole] | > 100 µM |  | MIC [1, 6]: > 100 µM
N#Cc1ccc(N/N=C/c2c[nH]c3cccc(OCc4ccccc4)c23)cc1 [Compound 28] | 25 µM (≈ 9.16 µg/mL) | 100 µM (≈ 36.6 µg/mL) | 
NC(=O)CC(N)C(=O)Nc1cccc2[nH]cc(/N=N/c3ccc(Br)cc3)c12 (stereo not drawn) [Compound 5, (E)-2-amino-N^1-(3-((4-bromophenyl)diazenyl)-1H-indol-4-yl)succinamide] | > 100 µM |  | MIC [1, 6]: > 100 µM
CC(=O)n1cc(/C=N/Nc2ccc(Cl)cc2)c2ccccc21 [Compound 24, (E)-1-(3-((2-(4-chlorophenyl)hydrazineylidene)methyl)-1H-indol-1-yl)ethan-1-one] | < 100 µM | > 100 µM | 
O=[N+]([O-])c1ccc(N/N=C/c2c[nH]c3ccccc23)cc1 [Compound 9, (E)-3-((2-(4-nitrophenyl)hydrazineylidene)methyl)-1H-indole] | > 100 µM |  | 

Reference: patent US12655101B2, “Small molecules with antibacterial activity” (NEW MEXICO TECH UNIVERSITY RESEARCH PARK CORPORATION, priority 2021, dated 2026)
